Where two headings read alike, the source gives them in different places. Marks after values point to notes of the source that are not given here. Starred links: 1 amine or outer side, 2 acyl side, 3 side chain; linkers in the order of their positions; H or OH if unused. Non-standard residues stand in square brackets, D forms with d. Residues, ends and D or L forms follow the SMILES beside them. Groups on a side chain read outwards from the residue. *: point of attachment. C18 diacid = O=C(O)CCCCCCCCCCCCCCCCC(=O)*; γGlu = O=C(O)[C@H](CCC(=O)[*:2])N[*:1]; εLys = N[C@@H](CCCCN[*:1])C(=O)[*:2]; Aib = CC(C)(N)C(=O)O
Assays:
[1] = Pharmacokinetic study in dogs after oral dosing of tablets with SNAC; assay type: in vivo, Beagle dogs; conditions: for half-life / Tmax: male
Summary of the method: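 Male beagle dogs (9-17 kg), fasted, received a single oral tablet with 100-300 mg SNAC and 3-4 mg test substance, groups of 6-8.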

[2] = Pharmacokinetic study in minipigs after i.v. administration; conditions: female, Göttingen, minipig, in vivo, iv
Protocol: The purpose of this example is to determine the half-life in vivo of the derivatives of the present invention after i.v. administration to minipigs, i.e. the prolongation of their time in the body and thereby their time of action. This is done in a pharmacokinetic (PK) study, where the terminal half-life of the derivative in question is determined. By terminal half-life is generally meant the period of time it takes to halve a certain plasma concentration, measured after the initial distribution phase.
Female Göttingen minipigs were obtained from Ellegaard Göttingen Minipigs (Dalmose, Denmark) approximately 7-14 months of age and weighing from approximately 16-35 kg were used in the studies. The minipigs were housed individually and fed restrictedly once daily with SDS minipig diet (Special Diets Services, Essex, UK).
After at 3 weeks of acclimatisation two permanent central venous catheters were implanted in vena cava caudalis in each animal. The animals were allowed 1 week recovery after the surgery, and were then used for repeated pharmacokinetic studies with a suitable wash-out period between successive derivative dosing.
The animals were fasted for approximately 18 hours before dosing and from 0 to 4 hours after dosing but had adlibitum access to water during the whole period.
The sodium salts of compounds of Examples 1 were dissolved to a concentration of 20-40 nmol/mL in a buffer containing 0.007% polysorbate 20, 50 mM sodium phosphate, 70 mM sodium chloride, pH 7.4. […]
Plasma was pipetted into Micronic tubes on dry ice and kept at −20° C. until analysed for plasma concentration of the compounds using ELISA, or a similar antibody-based assay, or LCMS. Individual plasma concentration-time profiles were analysed by a non-compartmental model in Phoenix WinNonLin ver. […] (Pharsight Inc., Mountain View, Calif., USA), and the resulting terminal half-lives (harmonic mean) determined.

[3] = oral tablet, SNAC 300 mg, test substance 3 mg, Beagle dogs, arithmetic mean

Row | SMILES | half-life ([1]; dog, in vivo, oral tablet, SNAC 300 mg, test substance 3 mg, Beagle dogs, harmonic mean, read-out: t1/2 (converted)) [days] | Tmax ([1]; dog, in vivo, oral tablet, SNAC 300 mg, test substance 3 mg, Beagle dogs, median, read-out: Tmax) [h] | AUC/Dose [1, 3] | Cmax/Dose [1, 3] | half-life ([2]; i.v. administration to minipigs, harmonic mean, read-out: Terminal half-life t1/2 (converted)) [min] | AUC/Dose ([1]; dog, in vivo, po) | Cmax/Dose ([1]; dog, in vivo, po) | Tmax ([1]; Beagle, dog, in vivo, po) [h] | half-life ([1]; Beagle, dog, in vivo, po) [days] | half-life [2] [min]
1 | CC[C@H](C)[C@H](NC(=O)[C@H](Cc1ccccc1)NC(=O)[C@H](CCC(=O)O)NC(=O)[C@H](CCCNC(=N)N)NC(=O)[C@H](C)NC(=O)[C@H](C)NC(=O)[C@H](CCC(N)=O)NC(=O)[C@H](CCCCNC(=O)[C@@H](N)CCCCNC(=O)[C@@H](N)CCCCNC(=O)CC[C@H](NC(=O)CCCCCCCCCCCCCCCCC(=O)O)C(=O)O)NC(=O)[C@H](CCC(=O)O)NC(=O)[C@H](CC(C)C)NC(=O)[C@H](CC(C)C)NC(=O)[C@@H](NC(=O)[C@H](CO)NC(=O)[C@H](Cc1ccc(O)cc1)NC(=O)[C@H](CC(=O)O)NC(=O)[C@H](CO)NC(=O)[C@@H](NC(=O)[C@H](Cc1ccccc1)NC(=O)[C@@H](NC(=O)CNC(=O)[C@H](CCC(=O)O)NC(=O)C(C)(C)NC(=O)[C@@H](N)Cc1ccc(O)cc1)[C@@H](C)O)[C@@H](C)O)[C@@H](C)CC)C(=O)N[C@@H](CCC(=O)O)C(=O)N[C@@H](Cc1c[nH]c2ccccc12)C(=O)N[C@@H](CC(C)C)C(=O)N[C@@H](CC(C)C)C(=O)N[C@@H](CCCNC(=N)N)C(=O)NCC(=O)NCC(=O)N1CCC[C@H]1C(=O)N[C@@H](CCC(=O)O)C(=O)N[C@@H](CO)C(=O)NCC(=O)N[C@@H](C)C(=O)N1CCC[C@H]1C(=O)N1CCC[C@H]1C(=O)N1CCC[C@H]1C(=O)N[C@@H](CO)C(=O)O [Compound 28] (H-Y[Aib]EGTFTSDYSILLEK([εLys-εLys-γGlu-C18 diacid])QAAREFIEWLLRGGPESGAPPPS-OH) | 2.79 | 1.3 | 18.6** kg * h/L | 0.36** kg/L | 2100 |  |  |  |  | 
2 | CC[C@H](C)[C@H](NC(=O)[C@H](Cc1ccccc1)NC(=O)[C@H](CCC(=O)O)NC(=O)[C@H](CCC(N)=O)NC(=O)[C@H](C)NC(=O)[C@H](C)NC(=O)[C@H](CCC(N)=O)NC(=O)[C@H](CCCCNC(=O)[C@@H](N)CCCCNC(=O)[C@@H](N)CCCCNC(=O)CC[C@H](NC(=O)CCCCCCCCCCCCCCCCC(=O)O)C(=O)O)NC(=O)[C@H](CCC(=O)O)NC(=O)[C@H](CC(C)C)NC(=O)[C@H](CC(C)C)NC(=O)[C@@H](NC(=O)[C@H](CO)NC(=O)[C@H](Cc1ccc(O)cc1)NC(=O)[C@H](CC(=O)O)NC(=O)[C@H](CO)NC(=O)[C@@H](NC(=O)[C@H](Cc1ccccc1)NC(=O)[C@@H](NC(=O)CNC(=O)[C@H](CCC(=O)O)NC(=O)C(C)(C)NC(=O)[C@@H](N)Cc1ccc(O)cc1)[C@@H](C)O)[C@@H](C)O)[C@@H](C)CC)C(=O)N[C@@H](CCC(=O)O)C(=O)N[C@@H](Cc1c[nH]c2ccccc12)C(=O)N[C@@H](CC(C)C)C(=O)N[C@@H](CC(C)C)C(=O)N[C@@H](C)C(=O)NCC(=O)NCC(=O)N1CCC[C@H]1C(=O)N[C@@H](CO)C(=O)N[C@@H](CO)C(=O)NCC(=O)N[C@@H](C)C(=O)N1CCC[C@H]1C(=O)N1CCC[C@H]1C(=O)N1CCC[C@H]1C(=O)N[C@@H](CO)C(=O)O [Compound 29] (H-Y[Aib]EGTFTSDYSILLEK([εLys-εLys-γGlu-C18 diacid])QAAQEFIEWLLAGGPSSGAPPPS-OH) |  |  |  |  |  | 16.6** kg * h/L | 0.26** kg/L | 1.2 | 2.88 | 4080
3 | CC[C@H](C)[C@H](NC(=O)[C@H](Cc1ccccc1)NC(=O)[C@H](CCC(=O)O)NC(=O)[C@H](CCCNC(=N)N)NC(=O)[C@H](C)NC(=O)[C@H](C)NC(=O)[C@H](CCC(N)=O)NC(=O)[C@H](CCCCNC(=O)[C@@H](N)CCCCNC(=O)[C@@H](N)CCCCNC(=O)CC[C@H](NC(=O)CCCCCCCCCCCCCCCCC(=O)O)C(=O)O)NC(=O)[C@H](CCC(=O)O)NC(=O)[C@H](CC(C)C)NC(=O)[C@H](CC(C)C)NC(=O)[C@@H](NC(=O)[C@H](CO)NC(=O)[C@H](Cc1ccc(O)cc1)NC(=O)[C@H](CC(=O)O)NC(=O)[C@H](CO)NC(=O)[C@@H](NC(=O)[C@H](Cc1ccccc1)NC(=O)[C@@H](NC(=O)CNC(=O)[C@H](CCC(=O)O)NC(=O)C(C)(C)NC(=O)[C@@H](N)Cc1ccc(O)cc1)[C@@H](C)O)[C@@H](C)O)[C@@H](C)CC)C(=O)N[C@@H](CCC(=O)O)C(=O)N[C@@H](Cc1c[nH]c2ccccc12)C(=O)N[C@@H](CC(C)C)C(=O)N[C@@H](CC(C)C)C(=O)N[C@@H](C)C(=O)NCC(=O)NCC(=O)N1CCC[C@H]1C(=O)N[C@@H](CO)C(=O)N[C@@H](CO)C(=O)NCC(=O)N[C@@H](C)C(=O)N1CCC[C@H]1C(=O)N1CCC[C@H]1C(=O)N1CCC[C@H]1C(=O)N[C@@H](CO)C(=O)O [Compound 31] (H-Y[Aib]EGTFTSDYSILLEK([εLys-εLys-γGlu-C18 diacid])QAAREFIEWLLAGGPSSGAPPPS-OH) |  |  |  |  |  | 17.9** kg * h/L | 0.35** kg/L | 1.3 | 2.33 | 2940

Reference: patent US20220177538A1, “CO-AGONISTS AT GLP-1 AND GIP RECEPTORS SUITABLE FOR ORAL DELIVERY” (Novo Nordisk A/S, priority 2020, published 2022)
